Data on 1 compound can be found in US20250161299A1, “ORAL PCLX-001 IN THE TREATMENT OF HUMAN CANCER” (PACYLEX PHARMACEUTICALS INC., priority 2022, published 2025).

This series is described as follows: Oral bioavailability in animal models. Format: in vivo.

Structures are written as SMILES.

Regarding `Cc1c(NS(=O)(=O)c2c(Cl)cc(-c3ccnc(N4CCNCC4)c3)cc2Cl)c(CC(C)C)nn1C` [PCLX-001, 2,6-dichloro-N-(3-isobutyl-1,5-dimethyl-1H-pyrazol-4-yl)-4-(2-(piperazin-1-yl)pyridin-4-yl)benzene sulfonamide], the oral bioavailability entry is recorded as “complete oral bioavailability”.
